Values joined by “and” are separate entries in the source; they are usually repeats but may differ in a detail not shown here. Identical values can stand only once. “Also recorded” adds a separate entry of the source. Like-named read-outs stand apart in the source and are kept apart here.
What was measured:
B. theta BSH KO strain = assay: Incubation with BSH-deleted B. theta strain; settings: 100 μM inhibitor
B. theta = assay: Determination of IC50 of compound 7 in B. theta cultures
B. theta BSH [1] = target: T1, B. theta BSH (Bacteroides thetaiotaomicron, UniProt Q8A600); assay: Inhibitor screen using rBSH, B. theta BSH (UPLC-MS % deconjugation)
B. adolescentis BSH = assay: Target validation and off-target profiling in B. adolescentis using 7-N3; type: cell-based, Bifidobacterium adolescentis L2-32; settings: decreasing concentrations of 7 for 1 h, then 10 μM 7-N3
Experimental: Target Validation and Off-target Profiling in B. adolescentis using 7-N3. Pilot studies with 7-N3 were performed using B. adolescentis (Gram positive) and B. theta (Gram negative). We chose to use B. adolescentis due to the stronger total fluorescent signal detected by-in gel fluorescence. […] Cultures were allowed to grow anaerobically at 37° C. for 21 h. 10 μM 7-N3 (10 mM stock in DMSO) or […] DMSO (to control tubes) was then added to the cultures and incubated anaerobically at 37° C. for 1 h. The cultures were centrifuged at 2,500 g at 4° C. for 15 mins. The media was decanted and cells were resuspended in PBS containing 1 mM TCEP and 1 mM PMSF and centrifuged 4,200 rpm at 4° C. for 15 mins. The buffer was decanted and the cells were suspended in 300 μL of fresh buffer and transferred to homogenizing tubes (Precellys lysing kit tough micro-organism lysing VK05 tubes) with ceramic beads. The suspension was then homogenized (5000 speed for 90 s*2, 6500 speed for 60 s) and spun down for 20 min at 15,000 g at 4° C. The supernatant was removed and the concentration of proteins in the lysate was quantified by Bradford assay. The lysates were then subjected to click reaction as per “Click Chemistry for In-gel Fluorescence Imaging” for fluorescence imaging and “Click Chemistry for MS/MS on Bacterial Lysate” for mass spectrophotometer-based quantification and identification.
Cultures were allowed to grow anaerobically at 37° C. for 21 h. Decreasing concentrations of 7 were added to different tubes and the cultures were incubated anaerobically at 37° C. for 1 h. 10 μM 7-N3 was then added to the cultures and incubated anaerobically at 37° C. for an additional hour. The cultures were further processed as per the reported method in “Target Validation and Off-target Profiling in B. adolescentis using 7-N3” and “Click Chemistry for In-gel Fluorescence Imaging”.
Click Chemistry for In-gel Fluorescence Imaging. Click reactions were performed on 25 μL scale. Lysates (normalized to 1.5 mg/mL for both bacterial and mammalian cells) pretreated with 10 μM Compound 7-N3 were incubated with 100 μM fluor 488-alkyne (10 mM stock in DMSO), 100 μM CuBr (5 mM stock in DMSO), and 100 μM Tris[(1-benzyl-1H-1,2,3-triazol-4-yl)methyl]amine (5 mM stock in 4:1 t-BuOH:DMSO) for 1 h at 37° C. in the dark. 10 μL of 2×Laemmli buffer (containing 5% β-mercaptoethanol) was added to the reactions and the tubes were heated at 95° C. for 10 mins. 15 μL of the protein samples were then resolved by 10% SDS-PAGE. The ladder was diluted 100-fold and 10 μL was loaded. Gels were destained for 30 mins using 40% methanol, 50% acetic acid, 10% water and visualized using Bio-Rad ChemiDoc MP Imaging System. Gels were stained for 20 mins in Coomassie blue and destained for 2 h prior to imaging.
Click Chemistry for MS/MS on Bacterial Lysate. Click reactions were performed on 100 μL scale. Lysates (normalized to 1.3 mg/mL) pretreated with 10 μM 7-N3 were incubated with 100 μM desthiobiotin-PEG4-alkyne (10 mM stock in DMSO), 1 mM CuBr (50 mM stock in DMSO), and 1 mM Tris[(1-benzyl-1H-1,2,3-triazol-4-yl)methyl]amine (50 mM stock in 4:1 t-BuOH:DMSO) for 1 h at 37° C. The samples were then processed for further analysis as per “Proteomic Analysis of Click-Tagged Proteins”.
Proteomic Analysis of Click-Tagged Proteins.

B. theta BSH [2] = target: T1, B. theta BSH; assay: Mass spectrometry analysis for identifying labeled residue on BSH; type: binding
Experimental: Mass Spectrometry Analysis for Identifying Labeled Residue on BSH. BSH protein was incubated with DMSO or a 10-fold molar excess of inhibitor 7 for 2 h at room temperature. Reactions were then analyzed by LC-MS using a Shimadzu LC and autosampler system (Shimadzu, Marlborough, MA) interfaced to an LTQ ion trap mass spectrometer (ThermoFisher Scientific, San Jose, CA).
To determine the site of modification, compound 7 modified protein was analyzed as described above, except that the LC system was interfaced to an Orbitrap Lumos Mass Spectrometer (ThermoFisher Scientific). […] Ion assignments were performed using mzStudio software.^50

B. theta BSH [3] = target: T1, B. theta BSH; assay: Compound 7 kinetic studies (time to complete inhibition); type: biochemical
Experimental: Formation of deconjugated bile acid was measured using a UPLC-MS-based assay and reported as % conversion.
Compound 7 Kinetic Studies. […] B. theta BSH (200 nM) was added to a pool of 100 μM bile acid pool and 100 μM 7. 500 μL aliquots were removed at indicated time points and flash frozen in liquid nitrogen. […] Procedure was repeated with 8.2 mM TUDCA.

[4] = test system: three Gram negative and three Gram positive strains of human gut bacteria; assay: Growth (OD600) and cell viability (CFU/mL) of the six gut bacterial strains; settings: 100 μM inhibitor
[5] = test system: three Gram negative and three Gram positive strains of human gut bacteria; assay: BSH inhibition in growing cultures of six gut bacterial strains (overall statements); type: cell-based; settings: 100 μM inhibitor, 100 μM conjugated bile acid mixture
B. adolescentis = assay: Inhibitor screen in bacteria, B. adolescentis culture; type: cell-based, Bifidobacterium adolescentis L2-32; settings: FIG. 2c, 100 μM inhibitor, 100 μM bile acid pool, 21 h, replicates 1-3
[6] = test system: differentiated Caco-2 cells
[7] = Supplementary FIG. 3a, 5 hours, 100 μM inhibitor, 200 nM rBSH, bile acid pool, replicates 1-3

## C[C@H](CCC(=O)CF)[C@H]1CC[C@H]2[C@@H]3[C@H](O)C[C@@H]4C[C@H](O)CC[C@]4(C)[C@H]3CC[C@]12C [Compound 7]
B. theta BSH KO strain
  bactericidal effect on BSH-deleted B. theta (CFUs after 24 h): not found to be bactericidal
B. theta BSH KO strain; 100 μM taurine conjugated pool, 24 h
  effect on bile acid pools with B. theta BSH KO strain: did not alter bile acid pools
B. theta; Bacteroides thetaiotaomicron, 48 h, read-out: IC50 against B. theta (growing culture), 100 μM TUDCA, 48 h anaerobic growth
  IC50: 0.913 µM
B. theta; read-out: IC50 against B. theta (growing culture), 100 μM TUDCA, 48 h anaerobic growth
  IC50: 1.07 µM
B. theta BSH [1]; FIG. 2a, 2 hours, 100 μM inhibitor, 200 nM rBSH, bile acid pool, replicates 1-3
  % deconjugation of TβMCA: 0.00%
B. theta BSH [1]; FIG. 2a, 21 hours, 100 μM inhibitor, 200 nM rBSH, bile acid pool, replicates 1-3
  % deconjugation of TβMCA: 0.00%
B. theta BSH [1]; [7]
  % deconjugation of TCA: 0.00%
  % deconjugation of TβMCA: 0.00%
B. theta BSH [1]; read-out: inhibition of B. theta BSH activity for 21 hours
  inhibition at 100 µM: > 98%
B. adolescentis BSH
  competition of 7 with 7-N3 for labeling of B. adolescentis BSH: dose-dependent labeling
B. theta BSH [2]; 10-fold excess of compound 7
  modified residue of B. theta BSH (top-down MS): Cys2
B. theta BSH [2]; 10-fold excess of compound 7, 2 h
  shift in mass of BSH after treatment: 388 Da
B. theta BSH [2]; incubation of B. theta BSH with compound 7
  shift in the intact mass of the protein: 388 mass units
B. theta BSH [3]; 100 μM 7 equimolar to substrate, no preincubation
  time to complete inhibition of B. theta BSH: ≤ 15 s
B. theta BSH [3]; large excess (~80-fold) of substrate (8.2 mM TUDCA)
  time to entire inhibition of B. theta BSH activity: ≤ 15 min
[4]
  effect on bacterial cell viability (CFU/mL, plated at 21 h): not bactericidal; also recorded: did not significantly affect the cell viability of the majority of the tested strains
  effect on bacterial growth (OD600 at 24 hours): did not significantly impact the growth
[4]; listed as compound 7
  effect on bacterial growth (OD600 at 24 hours): not bactericidal
[5]
  deconjugation / BSH inhibition in cultures of the six bacterial strains (in words): almost no deconjugation
[5]; listed as compound 7
  deconjugation / BSH inhibition in cultures of the six bacterial strains (in words): almost no detectable deconjugation
B. adolescentis
  % deconjugation of TCA: 2.88% and 3.09% and 2.93%
  % deconjugation of TDCA: 10.43% and 6.05% and 7.35%
  % deconjugation of TUDCA: 1.54% and 1.26% and 1.21%
  % deconjugation of TβMCA: 0.34% and 0.37% and 0.73%
[6]
  epithelial monolayer integrity (passive diffusion of 4 kDa FITC-dextran): did not compromise epithelial monolayer integrity

From patent US12577273B2, “Small molecule modulators of gut bacterial bile acid metabolism” (priority 2019, dated 2026)
